Laboratory results: patent publication US10597388B2, “Pyridazinone herbicides” (FMC CORPORATION, priority 2014, dated 2020)
Where two headings read alike, the source gives them in different places.

What was measured:
Format in all cases: in vivo
rice (Oryza sativa) = test: Test B flooded paddy test; conditions: 250 g ai/ha, Flood, visual rating on scale of 0 to 100 where 0 is no effect and 100 is complete control, 13 to 15 d after treatment
In short: (§1)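 Plants at the 2-leaf stage were flooded to 3 cm above soil, and test compounds were applied directly into the paddy water, which was held at that depth throughout. After 13 to 15 d in a greenhouse, injury was rated visually against untreated controls on a 0–100 scale (0 no effect, 100 complete control).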

[1] = system: barnyardgrass (Echinochloa crus-galli); test: Test B flooded paddy test; conditions: 250 g ai/ha, Flood, visual rating on scale of 0 to 100 where 0 is no effect and 100 is complete control, 13 to 15 d after treatment
In short: as §1

[2] = system: sedge, umbrella (small-flower umbrella sedge, Cyperus difformis); test: Test B flooded paddy test; conditions: 250 g ai/ha, Flood, visual rating on scale of 0 to 100 where 0 is no effect and 100 is complete control, 13 to 15 d after treatment
In short: as §1

[3] = system: ducksalad (Heteranthera limosa); test: Test B flooded paddy test; conditions: 250 g ai/ha, Flood, visual rating on scale of 0 to 100 where 0 is no effect and 100 is complete control, 13 to 15 d after treatment
In short: as §1

[4] = system: barnyardgrass (Echinochloa crus-galli); test: Test A greenhouse herbicide test, pre- and postemergence; conditions: for pest or weed control at 125 g/ha / pest or weed control at 500 g/ha: Echinochloa crus-galli, 240 h
In short: (§2)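 Seeds sown in loam–sand blend got a preemergence directed soil spray of compound in non-phytotoxic solvent with surfactant. Postemergence treatment was given at 2–10 cm, one- to two-leaf stage. After ~10 d in greenhouse, injury was rated visually vs untreated controls, 0 (no effect) to 100 (complete control).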

[5] = system: pigweed (Amaranthus retroflexus); test: as above; conditions: for pest or weed control at 125 g/ha / pest or weed control at 500 g/ha: Amaranthus retroflexus, 240 h
In short: as §2

[6] = system: ragweed (common ragweed, Ambrosia elatior); test: as above
In short: as §2

kochia (Kochia scoparia) [7] = test: as above
In short: as §2

[8] = system: oat, wild (wild oat, Avena fatua); test: Test C greenhouse herbicide test, postemergence
In short: (§3)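 Postemergence foliar treatment, 1- to 4-leaf stage (2–18 cm), peat/vermiculite medium; greenhouse 13–15 d; visual rating vs controls, 0 = no effect, 100 = complete control; dash = no result.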

[9] = system: chickweed (common chickweed, Stellaria media); test: Test C greenhouse herbicide test, postemergence
In short: as §3

kochia (Kochia scoparia) [10] = test: Test C greenhouse herbicide test, postemergence
In short: as §3

[11] = Postemergence, 125 g ai/ha, 0 to 100 scale where 0 is no effect and 100 is complete control
[12] = Postemergence, 500 g ai/ha, visual rating after approx. 10 d, 0 to 100 scale (0 no effect, 100 complete control)
[13] = Preemergence, 125 g ai/ha, 0 to 100 scale where 0 is no effect and 100 is complete control
[14] = Preemergence, 500 g ai/ha, 0 to 100 scale where 0 is no effect and 100 is complete control
[15] = Postemergence, 125 g ai/ha, 0 to 100 scale, 0 no effect, 100 complete control
[16] = Preemergence, 125 g ai/ha, visual injury rating, 0 to 100 scale (0 no effect, 100 complete control), approx. 10 d
[17] = Postemergence, 500 g ai/ha, 0 to 100 scale, 0 is no effect, 100 is complete control
[18] = Postemergence, 31 g ai/ha, 0 to 100 scale (0 no effect, 100 complete control)
[19] = Postemergence, 125 g ai/ha, scale 0 to 100, 0 is no effect, 100 is complete control
[20] = Postemergence, 250 g ai/ha, scale 0 to 100, 0 no effect, 100 complete control, 13 to 15 d
[21] = postemergence, 62 g ai/ha, scale 0 to 100, 0 no effect, 100 complete control

Structure (SMILES)	Plant response rating, Rice (rice (Oryza sativa))	Plant response rating, Barnyardgrass [1]	Plant response rating, Sedge, Umbrella [2]	Plant response rating, Ducksalad [3]	Plant response rating, Barnyardgrass [4, 11]	Plant response rating, Barnyardgrass [4, 12]	Barnyardgrass plant response rating [4, 13]	Plant response rating, Barnyardgrass [4, 14]	Plant response rating, Pigweed [5, 11]	Plant response rating, Pigweed [5, 12]	Pigweed plant response rating [5, 13]	Plant response rating, Pigweed [5, 14]	Plant response rating, Ragweed [6, 11]	Plant response rating, Ragweed [6, 12]	Ragweed plant response rating [6, 13]	Plant response rating, Ragweed [6, 14]	Plant response rating, Kochia (kochia (Kochia scoparia) [7]; [11])	Plant response rating, Kochia (kochia (Kochia scoparia) [7]; [12])	Kochia plant response rating (kochia (Kochia scoparia) [7]; [13])	Plant response rating, Kochia (kochia (Kochia scoparia) [7]; [14])	also measured
Cc1nn(C)c(=O)c(-c2c(C)oc3cccc(C)c23)c1O [Compound 8, 4-(2,4-dimethyl-3-benzofuranyl)-5-hydroxy-2,6-dimethyl-3(2H)-pyridazinone]																					plant injury at 250 g/ha (rice (Oryza sativa); Oryza sativa, 360 h, read-out: Plant response rating, Rice): 0%; pest or weed control at 250 g/ha ([1]; Echinochloa crus-galli, 360 h, read-out: Plant response rating, Barnyardgrass): 30%; pest or weed control at 250 g/ha ([2]; Cyperus difformis, 360 h, read-out: Plant response rating, Sedge, Umbrella): 70%; pest or weed control at 250 g/ha ([3]; Heteranthera limosa, 360 h, read-out: Plant response rating, Ducksalad): 20%; pest or weed control at 125 g/ha ([4]; post-emergence, Postemergence, 125 g ai/ha, visual rating after approx. 10 d, 0 to 100 scale (0 no effect, 100 complete control), read-out: Plant response rating, Barnyardgrass): 0%; pest or weed control at 500 g/ha ([4]; post-emergence, Postemergence, 500 g ai/ha, 0 to 100 scale, 0 is no effect, 100 is complete control, read-out: Barnyardgrass plant response rating): 0%; pest or weed control at 125 g/ha ([4]; pre-emergence, Preemergence, 125 g ai/ha, 0 to 100 scale where 0 is no effect and 100 is complete control, read-out: Barnyardgrass plant response rating): 0%; pest or weed control at 500 g/ha ([4]; pre-emergence, Preemergence, 500 g ai/ha, 0 to 100 scale, 0 no effect, 100 complete control, read-out: Plant response rating, Barnyardgrass): 0%; pest or weed control at 125 g/ha ([5]; post-emergence, Postemergence, 125 g ai/ha, visual rating after approx. 10 d, 0 to 100 scale (0 no effect, 100 complete control), read-out: Plant response rating, Pigweed): 70%; pest or weed control at 500 g/ha ([5]; post-emergence, Postemergence, 500 g ai/ha, 0 to 100 scale, 0 is no effect, 100 is complete control, read-out: Pigweed plant response rating): 80%; pest or weed control at 125 g/ha ([5]; pre-emergence, Preemergence, 125 g ai/ha, 0 to 100 scale where 0 is no effect and 100 is complete control, read-out: Pigweed plant response rating): 70%; pest or weed control at 500 g/ha ([5]; pre-emergence, Preemergence, 500 g ai/ha, 0 to 100 scale, 0 no effect, 100 complete control, read-out: Plant response rating, Pigweed): 100%
CCC(=O)Oc1c(OC)nn(C)c(=O)c1-c1c(C)sc2ccc(Cl)cc12 [Compound 131]	0	0	0	0	0	20	0	40	60	90	80	100	100	90	40	60	60	80	0	20	
CC(=O)Oc1c(Cl)nn(C)c(=O)c1-c1c(C)sc2ccc(Cl)cc12 [Compound 116]	0	0	70	50	20	90	70	100	70	100	90	90	70	100	90	90	30	60	30	100	
CC(=O)Oc1c(Cl)nn(C)c(=O)c1-c1c(C)sc2ccc(C(F)(F)F)cc12 [Compound 152]	0	0	0	0		40		40		60		90		90		100		40		70	Plant response rating, Barnyardgrass [4, 15]: 20; Plant response rating, Barnyardgrass [4, 16]: 40; Plant response rating, Pigweed [5, 15]: 50; Plant response rating, Pigweed [5, 16]: 90; Plant response rating, Ragweed [6, 15]: 70; Plant response rating, Ragweed [6, 16]: 80; Plant response rating, Kochia (kochia (Kochia scoparia) [7]; [15]): 30; Plant response rating, Kochia (kochia (Kochia scoparia) [7]; [16]): 30
CCC(=O)Oc1c(C)nn(C)c(=O)c1-c1c(C)ccc2ccccc12 [Compound 78]					20		0		60		60	100	40		60	90	50		20	100	Barnyardgrass plant response rating [4, 17]: 30; Plant response rating, Barnyardgrass ([4]; Preemergence, 500 g ai/ha, 0 to 100 scale, 0 no effect, 100 complete control): 70; Pigweed plant response rating [5, 17]: 90; Ragweed plant response rating [6, 17]: 80; Kochia plant response rating (kochia (Kochia scoparia) [7]; [17]): 90; Oat, Wild plant response rating [8, 18]: 35; Plant response rating, Oat, Wild [8, 19]: 60; Plant response rating, Oat, Wild [8, 20]: 60; Oat, Wild plant response rating [8, 21]: 50; Chickweed plant response rating [9, 18]: 30; Plant response rating, Chickweed [9, 19]: 70; Plant response rating, Chickweed [9, 20]: 80; Chickweed plant response rating [9, 21]: 60; Kochia plant response rating (kochia (Kochia scoparia) [10]; [18]): 45; Plant response rating, Kochia (kochia (Kochia scoparia) [10]; [19]): 85; Plant response rating, Kochia (kochia (Kochia scoparia) [10]; [20]): 90; Kochia plant response rating (kochia (Kochia scoparia) [10]; [21]): 70
